# Measurements as given in the PolyMetriX glass transition set.
# Where a name gives a salt, the structure may show the parent alone. ± gives the standard deviation of the reports.
row,SMILES,glass transition temperature [°C]
1,*c1ccc(NC2CC(=O)N(c3ccc(Cc4ccc(N5C(=O)CC(Nc6ccc(-c7nc(-c8ccc(/N=N/c9ccc([N+](=O)[O-])cc9)cc8)[nH]c7*)cc6)C5=O)cc4)cc3)C2=O)cc1 (repeat unit),258.00
2,*CC(*)OC(=O)C(F)(F)F (repeat unit) [Poly(vinyl trifluoroacetate) ],46 ± 5.6
3,*C(*)C(=O)OCCC (repeat unit),-15.00
4,*CC(*)CCCCCCCCCCCCCCCCCC (repeat unit),-88.00
5,*c1ccc2c(c1)C(=O)N(c1ccc(C3(c4ccc(N5C(=O)c6ccc(C(*)(C(F)(F)F)C(F)(F)F)cc6C5=O)cc4)c4ccccc4-c4ccccc43)cc1)C2=O (repeat unit),370.00
6,*C(=O)Nc1ccc(Cc2ccc(NC(=O)c3ccc4c(c3)C(=O)N(c3cccc(P(=O)(c5ccccc5)c5cccc(N6C(=O)c7ccc(*)cc7C6=O)c5)c3)C4=O)cc2)cc1 (repeat unit),233.00
7,*c1cccc(-c2cccc(C(F)(F)C(F)(F)C(*)(F)F)c2)c1 (repeat unit),45.00
8,*C(=O)CCCCCCCCC(=O)N1CCN(*)CC1 (repeat unit),82.00
9,*c1ccc(Oc2ccc(C3(c4ccc(Oc5ccc(N6C(=O)c7ccc(Oc8ccc(C9(c%10ccc(Oc%11ccc%12c(c%11)C(=O)N(*)C%12=O)cc%10)CCC(C(C)(C)C)CC9)cc8)cc7C6=O)cc5)cc4)CC4CC3C3CCCC43)cc2)cc1 (repeat unit),257.00
10,*c1ccc(Oc2ccc(-c3ccc(Oc4ccc(N5C(=O)c6ccc(Oc7ccc(C8(c9ccc(Oc%10ccc%11c(c%10)C(=O)N(*)C%11=O)cc9)CCCCCCCCCCC8)cc7)cc6C5=O)cc4)cc3C)c(C)c2)cc1 (repeat unit),257.00
11,*/C(C)=C(/*)[Si](C)(C)C[Si](C)(C)C (repeat unit),200.00

# Results, then the molecule that gave them:
row,glass transition temperature [°C],SMILES
1,75.00,*CC1CCCC(COC(=O)c2ccc(C(=O)O*)cc2)C1 (repeat unit)
2,68.00,*CC(*)(C)C(=O)OCCCOc1ccc(C(=O)Oc2ccc3ccc(=O)oc3c2)cc1 (repeat unit)
3,175.00,*Oc1ccc(S(=O)(=O)c2ccc(Oc3c(C(C)C)cc(C(C)(C)c4cc(C(C)C)c(*)c(C(C)C)c4)cc3C(C)C)cc2)cc1 (repeat unit)
4,278.00,*c1ccc(Oc2ccc(C(=O)c3ccc(C(=O)c4ccc(Oc5ccc(-c6nc(-c7ccc(-c8nc(*)c(-c9ccccc9)[nH]8)cc7)[nH]c6-c6ccccc6)cc5)cc4)cc3)cc2)cc1 (repeat unit)
5,177.00,*Oc1cccc(Oc2ccc(S(=O)(=O)c3ccc(*)cc3)cc2)c1 (repeat unit)
6,340.00,*c1ccc(C(=O)Nc2ccc(-n3c(=O)c4cc5c(=O)n(*)c(=O)c5cc4c3=O)cc2C(=O)OCC)cc1 (repeat unit)
7,99.00,*c1ccc(C(=O)OCCCCCCCCOc2ccc(/C=C3\CC/C(=C\c4ccc(OCCCCCCCCOC(=O)c5ccc(-c6nnc(*)o6)cc5)cc4)C3=O)cc2)cc1 (repeat unit)
8,284.00,*C(=O)Nc1ccc(Oc2ccc(C3(c4ccc(Oc5ccc(NC(=O)c6ccc7c(c6)C(=O)N(c6ccc(Oc8ccc(Oc9ccc(N%10C(=O)c%11ccc(*)cc%11C%10=O)cc9)cc8)cc6)C7=O)cc5)cc4)NC(=O)c4ccccc43)cc2)cc1 (repeat unit)
9,158.00,*CCCCCC(=O)Nc1ccc(Oc2ccc(Oc3ccc(NC(=O)CCCCCN4C(=O)c5ccc(C(=O)c6ccc7c(c6)C(=O)N(*)C7=O)cc5C4=O)cc3)cc2)cc1 (repeat unit)
10,378.00,*c1c(C)cc(C)c(N2C(=O)c3ccc(Sc4ccc5c(c4)C(=O)N(*)C5=O)cc3C2=O)c1C (repeat unit)
11,130.00,*CCCCOc1ccc(-c2ccc(O*)c3ccccc23)c2ccccc12 (repeat unit)
